Test results from a melting point compilation (Tetko et al.; mined from patent text by program, amines drawn as free bases though some values may be those of a salt).

| SMILES | melting point [°C] |
| --- | --- |
| Cc1cccc(C(C)C)c1NC(=O)CCCCCBr | 66 to 67 |
| N#Cc1[nH]c(Br)c(C#N)c1Br | 227 to 232 |
| O=C1CC2(CCCC2)CC(=O)N1c1cccnc1 | 153 to 154 |
| CCN(CC)C(=O)COC(=O)c1cc(S(N)(=O)=O)c(Cl)cc1NCc1ccco1 | 135 to 136 |
| CCCC(C1CCCCC1)n1cncc1C(=O)O (stereo unspecified) | 202 |
| CC(=O)N(C)C1CCNCC1 | < 50 |
| Cc1ccccc1NC(=O)c1cc([N+](=O)[O-])ccc1NC(=O)CF | 238 to 239 |
| CC(C)(C)NC(=O)N1CC(Oc2ccc(C(F)(F)F)cc2)C1 | 145 to 146 |
| CC(OP(=O)(c1ccccc1)c1ccccc1)c1ccccc1C(C)OP(=O)(c1ccccc1)c1ccccc1 (stereo unspecified) | 147 to 148 |
| CCCc1c(C(=O)C(C)C)c2ccc(C(N)=O)cc2n1Cc1ccccc1NC(=O)NC | 222 to 223 |
| COC(=O)C(=O)Nc1ccc(C(CC2CCCC2)C(=O)Nc2nccs2)cc1 (stereo unspecified) | 95 to 98 |
| C=Cc1cc(C)cc(C)c1C1=C(O)C2(CCN(OC)CC2)NC1=O | 198 to 200 |
| COc1cc(C=CC(=O)N2CCN(c3nc(N)c4cc(OC)c(OC)cc4n3)CC2)cc(OC)c1 | 132 to 135 |
| COC(=O)c1c(S(C)(=O)=O)ccc(C(=O)C2C(=O)CCCC2=O)c1Cl | 160 to 162 |
| CCCCCCCCCCc1cccc(C(=O)N(O)CCCC(=O)O)c1 | 77 to 79 |
| COCc1nccn1CC(=O)c1ccc(-c2ccc(N3C[C@H](Cn4ccnn4)OC3=O)cc2F)cn1 | 78 to 80 |
| CCOC(=O)/C=C/c1ccc(Cl)nn1 | 106 to 110 |
| CCOC(=O)C1CCc2c([nH]c3ccc(N(C)C)cc23)C1 (stereo unspecified) | 100 to 101 |

Now from value to molecule:

| melting point [°C] | SMILES |
| --- | --- |
| 140 to 141 | O=C(Nc1nnc(CC2CC2)o1)C1c2ccccc2Oc2ccccc21 |
| 272 to 273 | CC(=O)Nc1ccc(C2=NNC(=O)NC2C)cc1 (stereo unspecified) |
| 118 to 120 | Fc1ccc2nc(-c3ccccc3)cc(OCC3CO3)c2c1 (racemic) |
| > 280 | CC(=NNc1nnc(-n2c(=S)[nH]c3ccccc32)s1)c1ccccn1 |
| 155 to 157 | N#Cc1ccc(CN2CC=C(/C=C/c3ccccc3)CC2)cc1 |
| 102 to 103 | CSc1cc2cccc(NS(=O)(=O)c3cccs3)c2[nH]1 |
| 99 to 101 | C[C@H](O)Cn1ccc2cc(F)c(Cl)cc21 |
| 300 to 301 | CC(C)(C)c1ccc(C(=O)Nc2cn3cc(C#N)ccc3n2)cc1 |
| 123 to 125 | CC(=O)C(=O)Oc1c(C)cc(Nc2ccn(-c3ccccc3)n2)cc1C |
| 257 to 260 | CCC(=O)c1cc(O)cc2cc(-c3ccc(O)cc3)oc12 |
| 111 to 112 | COc1cc2c(cc1OCc1ccccc1)CCN(Cc1cccc(Oc3ccccc3)c1)C2 |
| 117 to 118 | CCCCCc1c(C(C)C)nc(C(C)C)c(CO)c1-c1cccc(F)c1 |
| 155 to 156 | COc1ccc(-c2coc3ccc(-c4nnc(SCc5cccc(Cl)c5)o4)cc23)cc1 |
| 200 to 202 | Clc1ccc(NN=Cc2ccc(Oc3nn(Cc4ccccc4)c4ccccc34)o2)nn1 |
| 198 to 200 | CCCCc1nc2c(N)nc3ccccc3c2n1CCCC(=NOC)c1ccccc1 |
| 173 to 175 | Cc1cc(C(=O)N2Cc3cccn3Cc3ccccc32)ccc1C1=CCCCC1 |
| 254 | Brc1cn2cc(-c3ccccc3)nc2c(Br)n1 |
| 126 to 128 | O=c1c2cccnc2sc(=Nc2ccc(C(F)(F)F)cc2)n1Cc1ccccc1 |
| 172 to 174 | O=C(O)CCC(=NO)c1ccc(-c2ccc(Cl)s2)cc1 |
| 251 to 252 | COc1ccc(-n2c(=O)c(C)nc3cccnc32)cc1 |
| 203 to 206 | O=C(O)c1ccccc1Nc1ccc(CCc2ccc(N3CC[C@@H]4CCCC[C@H]4C3)cc2)cc1 |
| 126 to 128 | COc1cc2c(cc1OCc1ccccc1)[C@H](CO)OC2=O |
| 63.5 to 64.5 | CNc1cccc(Cl)n1 |
